In the test the test system is Plasmodium berghei. The test can be described thus: Luciferase/luciferin-expressing antifolate-resistant parasites were used to infect a culture of HepG2 cells that were pre-incubated with compounds. Infected hepatocytes emit light due to the luciferase reaction. Assay results are presented as the percent inhibition of light emission compared to control. […]. Conditions: sporozoite; for IC90: read-out: LUCIFERASE INFECTION ASSAY - IC90. The format is functional.

[1] abbreviates: read-out: LUCIFERASE INFECTION ASSAY - IC50.

As to `COc1ccc(CCN2C(=O)CS/C2=N\c2ccc(C)cc2C)cc1OC`, the IC90 (as a rule, the concentration at which the effect reaches the 90% level) was > 8.58 µM. Further, the IC50 (commonly the concentration that inhibits the measured activity by half) (FFLUC_HILL_SLOPE 11.8, FFLUC_R_SQUARED 0.0733, HEPG2TOX_HILL_SLOPE 1.46, HEPG2TOX_R_SQUARED 0.879, PBLUC_HILL_SLOPE 2.1, PBLUC_R_SQUARED 0.331, read-out: LUCIFERASE INFECTION ASSAY - IC50) stood at 6.08 µM. As to `CC(NC(=O)Nc1ccc(C#N)cc1)c1ccc2ccccc2c1` (stereo unspecified), the IC90 is > 10 µM. Also, under “PBLUC_HILL_SLOPE 12.1, PBLUC_R_SQUARED 0.463, read-out: LUCIFERASE INFECTION ASSAY - IC50”, the IC50 worked out at 9.4 µM. As to `Cc1cccc(C(=O)NC(C(=O)Nc2ccn(C)n2)C(C)C)c1` (stereo unspecified), the IC90 was > 10 µM. In addition, the IC50 under setting [1] is > 10 µM. On to `Cc1nn(Cc2n[nH]c(=S)o2)c(C)c1Br`, for which the IC90 is > 11.4 µM. Moreover, under setting [1], the IC50 was > 11.4 µM. As for `c1ccc(-c2cc3c(Oc4ccc(-n5ccnc5)cc4)ncnc3s2)cc1`, the IC90 is > 10 µM. The IC50 (PBLUC_HILL_SLOPE 1.81, PBLUC_R_SQUARED 0.315, read-out: LUCIFERASE INFECTION ASSAY - IC50) stood at 6.93 µM.

With `COc1ccc2c(c1)c(CC(=O)Nc1cccc(S(=O)(=O)N3CCCC3)c1)c(C)n2C(=O)c1ccc(Cl)cc1`, the IC90 is > 10 µM. In addition, for the setting “FFLUC_HILL_SLOPE 4.55, FFLUC_R_SQUARED 0.0972, read-out: LUCIFERASE INFECTION ASSAY - IC50”, the half-maximal inhibitory concentration (IC50) is > 10 µM.

With `c1csc(-c2cn3c(-c4ccncc4)cnc3cn2)c1`, the IC90 is > 11.9 µM. Moreover, the IC50 (PBLUC_HILL_SLOPE 5.41, PBLUC_R_SQUARED 0.452, read-out: LUCIFERASE INFECTION ASSAY - IC50) was 10.5 µM. In the case of `Fc1ccc(-c2cc3ncnc(N4CCN(CCN5CCCC5)CC4)c3s2)cc1`, the IC90 is > 10 µM. The IC50 (PBLUC_HILL_SLOPE 17, PBLUC_R_SQUARED 0.345, read-out: LUCIFERASE INFECTION ASSAY - IC50) came to 9.86 µM.

On to `CCOC(=O)c1c(C)[nH]c(C(=O)Nc2nc(-c3ccc(C4CCCCC4)cc3)cs2)c1C`, for which the IC90 was found to be 9.4 µM. In addition, under “HEPG2TOX_HILL_SLOPE 12.2, HEPG2TOX_R_SQUARED 0.959, PBLUC_HILL_SLOPE 12.5, PBLUC_R_SQUARED 0.559, read-out: LUCIFERASE INFECTION ASSAY - IC50”, the IC50 came out at 7.88 µM. As to `COCCNC(=O)c1ccc(C2(CNc3ccc(OC)c(OC)c3)CC2)cc1`, the IC90 was determined as 1.89 µM. Further, the IC50 (FFLUC_HILL_SLOPE 16.1, FFLUC_R_SQUARED 0.266, PBLUC_HILL_SLOPE 1.26, PBLUC_R_SQUARED 0.621, read-out: LUCIFERASE INFECTION ASSAY - IC50) amounted to 0.332 µM. For `COc1ccc(/C=C/c2nc3cc(C)c(C)cc3s2)c(OC)c1OC`, the concentration for an effect of 90% (IC90) is 8.68 µM. Moreover, under setting [1], the IC50 stood at 4.27 µM. As for `OC(CSc1nnc(CNc2cccc(C(F)(F)F)c2)n1C1CCCCC1)c1ccccc1` (stereo unspecified), the concentration for an effect of 90% (IC90) was > 10 µM. In addition, the IC50 (HEPG2TOX_HILL_SLOPE 0.64, HEPG2TOX_R_SQUARED 0.795, PBLUC_HILL_SLOPE 0.508, PBLUC_R_SQUARED 0.492, read-out: LUCIFERASE INFECTION ASSAY - IC50) turned out to be 1.13 µM. In the case of `COc1ccc(CCNc2nc(C)nc3sc(-c4ccccc4)cc23)cc1OC`, the IC90 is > 10 µM. Besides, the IC50 (HEPG2TOX_HILL_SLOPE 6.76, HEPG2TOX_R_SQUARED 0.162, read-out: LUCIFERASE INFECTION ASSAY - IC50) was > 10 µM. On to `CS(=O)(=O)c1ccc(-c2cnc3ccc(Cc4ccc(F)cc4)nn23)cc1`, for which the IC90 came out at 3.4 µM. Further, the IC50 under setting [1] was determined as 2.9 µM. Regarding `FC(F)(F)c1nc2ccccc2c2nnc(-c3ccc(Cl)cc3)n12`, the concentration for an effect of 90% (IC90) worked out at 3.88 µM. Moreover, under “HEPG2TOX_HILL_SLOPE 3.1, HEPG2TOX_R_SQUARED 0.959, PBLUC_HILL_SLOPE 22, PBLUC_R_SQUARED 0.45, read-out: LUCIFERASE INFECTION ASSAY - IC50”, the IC50 stood at 3.51 µM. Take `Nc1c(C(=O)Nc2cccc(F)c2)sc2nc3c(cc12)N1CCC3CC1`: the IC90 was > 8.96 µM. Moreover, where the note is “PBLUC_HILL_SLOPE 1.17, PBLUC_R_SQUARED 0.5, read-out: LUCIFERASE INFECTION ASSAY - IC50”, the IC50 was found to be 1.98 µM. For the compound `CO[C@H]1[C@H](O)[C@H](O[C@H]2CC[C@]3(C)C4CC[C@]5(C)C(C6=CC(=O)OC6)CC[C@]5(O)C4CC[C@@H]3C2)O[C@@H](C)[C@@H]1O` (stereo partly specified), the IC90 turned out to be 0.138 µM. For `CCOC(=O)c1sc2ncnc(NCCC(O)(c3ccc(C)o3)C(F)(F)F)c2c1C` (stereo unspecified), the IC90 was 3.68 µM. Besides, for the setting “HEPG2TOX_HILL_SLOPE 2.98, HEPG2TOX_R_SQUARED 0.521, PBLUC_HILL_SLOPE 13.8, PBLUC_R_SQUARED 0.46, read-out: LUCIFERASE INFECTION ASSAY - IC50”, the IC50 turned out to be 3.14 µM.

With `Cc1cc(-c2cc(C(=O)Nc3nnc(C(F)(F)F)[nH]3)c3cnn(C(C)C)c3n2)c(C)s1`, the IC90 was > 10 µM. Further, the IC50 (HEPG2TOX_HILL_SLOPE 1.32, HEPG2TOX_R_SQUARED 0.884, PBLUC_HILL_SLOPE 1.68, PBLUC_R_SQUARED 0.6, read-out: LUCIFERASE INFECTION ASSAY - IC50) is 3.79 µM.

On to `FC(F)(F)c1nc2ccccc2n2c(-c3ccc(Br)cc3)nnc12`, for which the IC90 is > 8.39 µM. For the same compound, the IC50 under setting [1] was > 8.39 µM. For `CNc1nc2cnc(-c3ccc(O)c(OC)c3)cc2n1Cc1ccccc1`, the concentration for an effect of 90% (IC90) was 3.99 µM. Also, the IC50 under setting [1] was 3.17 µM. Take `Cc1cc(=O)oc2cc(Oc3nc(CN4CCOCC4)nc4sc5c(c34)CCCC5)c(Cl)cc12`: the IC90 was > 10 µM. Also, where the note is “HEPG2TOX_HILL_SLOPE 1.03, HEPG2TOX_R_SQUARED 0.724, read-out: LUCIFERASE INFECTION ASSAY - IC50”, the IC50 is > 10 µM.

On to `Cc1noc(-c2ccc(C(F)(F)F)cc2)c1NC(=O)Nc1cc(Cl)cc(Cl)c1`, for which the IC90 is 1.05 µM. For the same compound, the IC50 under setting [1] was 0.395 µM.

Consider `CC(C)C1NC(=O)N(CCCOc2ccc(C(C)(C)C)cc2)C1=O` (stereo unspecified), for which the IC90 is > 10 µM. Also, the IC50 under setting [1] amounted to 9.61 µM. In the case of `O=C1Nc2ccc([N+](=O)[O-])cc2C12NNc1ccccc1O2` (stereo unspecified), the IC90 is > 10 µM. Moreover, the IC50 under setting [1] was > 10 µM. As for `Cc1nn(-c2ccccc2)c(Sc2nc3ccccc3s2)c1/C=N/N1CCN(c2ccccn2)CC1`, the concentration for an effect of 90% (IC90) worked out at 7.21 µM. Besides, the IC50 (HEPG2TOX_HILL_SLOPE 19.8, HEPG2TOX_R_SQUARED 0.361, PBLUC_HILL_SLOPE 5.19, PBLUC_R_SQUARED 0.522, read-out: LUCIFERASE INFECTION ASSAY - IC50) is 4.72 µM.

Consider `Cc1sc2ncnc(N3CCC(C(=O)Nc4nnc(-c5cccc([N+](=O)[O-])c5)o4)CC3)c2c1C`, for which the IC90 was > 10 µM. Moreover, under setting [1], the IC50 was > 10 µM. Regarding `CCCCC(CC)C[n+]1c(C)cc(C=C2Sc3ccccc3N2CC)cc1C` (stereo unspecified), the IC90 was found to be 0.111 µM. In addition, the IC50 (HEPG2TOX_HILL_SLOPE 1.26, HEPG2TOX_R_SQUARED 0.976, PBLUC_HILL_SLOPE 1.65, PBLUC_R_SQUARED 0.944, read-out: LUCIFERASE INFECTION ASSAY - IC50) worked out at 0.0293 µM.

For `CCCn1c(CCC(=O)OCC(=O)c2ccc(NC(=O)CC(C)C)cc2)nc2cc(S(=O)(=O)N3CCCC3)ccc21`, the IC90 is > 10 µM. In addition, the IC50 under setting [1] is > 10 µM. In the case of `COc1ccc(-c2nnc(SCn3nnc4ccccc4c3=O)n2-c2ccccc2C(C)C)cc1`, the IC90 was > 10 µM. Also, the IC50 (FFLUC_HILL_SLOPE 2.15, FFLUC_R_SQUARED 0.39, read-out: LUCIFERASE INFECTION ASSAY - IC50) is > 10 µM. Turning to `CNc1ccccc1C(C)(C)c1cc(-c2ccc(Cl)cc2)no1`, the IC90 was > 10 µM. Besides, the IC50 under setting [1] came to 4.84 µM. For `N#Cc1ccc(-c2cnc3cnc(-c4cccs4)cn23)cc1`, the IC90 worked out at 9.18 µM. For the same compound, the IC50 (PBLUC_HILL_SLOPE 3.09, PBLUC_R_SQUARED 0.489, read-out: LUCIFERASE INFECTION ASSAY - IC50) was 4.51 µM. Regarding `COc1cccc(N(C)C(=O)c2nn(Cc3ccccc3)c(=O)c3ccccc23)n1`, the IC90 is > 10 µM. Under setting [1], the half-inhibitory concentration (IC50) is > 10 µM. Take `O=C(Nc1ccc(F)cc1)c1nnsc1S(=O)(=O)c1ccc(Cl)cc1`: the IC90 is > 8.29 µM. Besides, under setting [1], the IC50 was 6.54 µM. As to `Cc1nn(-c2ccccc2)c(C)c1C(=O)ONC(=N)c1cccc(Cl)c1`, the IC90 was > 8.95 µM. Besides, the IC50 (PBLUC_HILL_SLOPE 7.89, PBLUC_R_SQUARED 0.243, read-out: LUCIFERASE INFECTION ASSAY - IC50) was found to be 7.68 µM. For `Cc1cc(NC(=O)/C=C/c2cn(-c3ccccc3)nc2-c2cccnc2)ccc1N1CCN(C)CC1`, the IC90 worked out at 4.23 µM. Also, the IC50 (PBLUC_HILL_SLOPE 11.7, PBLUC_R_SQUARED 0.29, read-out: LUCIFERASE INFECTION ASSAY - IC50) was 3.5 µM.

As to `CCn1c(SCC(=O)NC(=O)NCc2cccs2)nnc1C1CC1`, the IC90 is > 10 µM. Under setting [1], the IC50 is > 10 µM. `O=C(Nc1ccc(OC(F)(F)F)cc1)Nc1ccc2nc(-c3ccco3)nn2c1`: the concentration for an effect of 90% (IC90) was found to be 7.51 µM. Also, the IC50 (PBLUC_HILL_SLOPE 672, PBLUC_R_SQUARED 0.263, read-out: LUCIFERASE INFECTION ASSAY - IC50) was found to be 7.48 µM.

As for `CCOC(=O)c1ccc2c(c1)C1C=CCC1C(c1cccnc1)N2` (stereo unspecified), the 90% effect concentration (IC90) is > 10.3 µM. The IC50 under setting [1] is > 10.3 µM. Regarding `COc1ccc(C(=O)Nc2nonc2-c2ccc(F)cc2)cc1Cl`, the IC90 turned out to be 3.66 µM. Moreover, under setting [1], the IC50 stood at 3.16 µM. For the compound `Cc1cc(C)cc(-n2c(C)cc(C(=O)CNC(=O)NCc3ccccc3)c2C)c1`, the IC90 came to 3.27 µM. The IC50 (HEPG2TOX_HILL_SLOPE 1.59, HEPG2TOX_R_SQUARED 0.958, PBLUC_HILL_SLOPE 2.43, PBLUC_R_SQUARED 0.455, read-out: LUCIFERASE INFECTION ASSAY - IC50) came to 1.32 µM.
